Values of other authors in patent publication US20120177733A1 (priority 2005, published 2012).

Tests used:
[1] = not given; remark: listed apart in the source

| absolute (oral) bioavailability | absolute oral bioavailability, wide range | solubility in water [1] | Structure (SMILES) |
| --- | --- | --- | --- |
| about 25% | 10-35% |  | CCCCC(=O)N(Cc1ccc(-c2ccccc2-c2nnn[nH]2)cc1)[C@H](C(=O)O)C(C)C [valsartan, (S)—N-valeryl-N-{[2′-(1H-tetrazole-5-yl)-biphenyl-4-yl]-methyl}-valine] |
| 64-90% |  | slightly soluble | CCOC(=O)C1=C(COCCN)NC(C)=C(C(=O)OC)C1c1ccccc1Cl (stereo not shown) [Amlodipine besylate, 3-ethyl-5-methyl-2(2-aminoethoxymethyl)-4-(2-chlrorophenyl)-1,4-dihydro-6-methyl-3,5-pyridinedicarboxylate benzenesulphonate] |
